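Assay format: 96-well plates, 48-hour exposure. Definition used: TGI = concentration required for complete inhibition of growth.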

Test systems include MCF7 breast; PC-3 prostate; SNB-75 CNS; SF-539 CNS; SNB-19 CNS; MDA-MB-435; KM12 colon; SN12C renal; HT29 colon; NCI-H226 lung; UACC-62 melanoma; HL-60(TB) leukemia; HOP-92 NSCLC; OVCAR-4 ovarian; OVCAR-3 ovarian; 786-0 renal; SK-MEL-5 melanoma; T-47D breast; NCI-H460 lung; SR leukemia.
Assay in all cases: DTP human tumour cell line panel, 48 h

For orientation: TGI means the concentration giving total growth inhibition. Higher therefore signals less potent growth arrest. Turning to `CSc1nc(-c2ccccc2)nc(C(C#N)C#N)n1`, the TGI in the experiment on MCF7 breast, with PC-3 prostate, in the experiment on SNB-75 CNS, with SF-539 CNS, in the experiment with SNB-19 CNS and in the experiment on MDA-MB-435 was more than 100 µM in each case. The TGI in the experiment with KM12 colon, in the experiment on SN12C renal, in the experiment with HT29 colon, in the experiment on NCI-H226 lung, with UACC-62 melanoma and with HL-60(TB) leukemia was more than 100 µM each time. In addition, the TGI with HOP-92 NSCLC, in the experiment with OVCAR-4 ovarian, in the experiment with OVCAR-3 ovarian, in the experiment on 786-0 renal, with SK-MEL-5 melanoma and in the experiment with T-47D breast was more than 100 µM throughout.
Consider `Cc1nn(C(=O)Cc2ccccc2)c2c1C(c1ccc([N+](=O)[O-])cc1)SC(N)=N2` (stereo not given), for which the TGI with MCF7 breast, with PC-3 prostate, in the experiment on SF-539 CNS, with MDA-MB-435, in the experiment on KM12 colon and in the experiment with SN12C renal was more than 100 µM in each case. In addition, the TGI in the experiment on HT29 colon, in the experiment with UACC-62 melanoma, in the experiment with HL-60(TB) leukemia, in the experiment with NCI-H460 lung, in the experiment with SR leukemia and with 786-0 renal was more than 100 µM in each case. The TGI in the experiment on SK-MEL-5 melanoma and with T-47D breast was more than 100 µM each time.
Take `O=C(Nc1ccccc1)c1cc(S(=O)(=O)N2CCNC2=O)c(S)cc1Cl`: the TGI with MCF7 breast, with PC-3 prostate, in the experiment with SNB-75 CNS, with SF-539 CNS, with SNB-19 CNS and in the experiment with MDA-MB-435 was more than 100 µM throughout. In addition, the TGI in the experiment on KM12 colon, in the experiment on SN12C renal, with HT29 colon, with UACC-62 melanoma, with HL-60(TB) leukemia and in the experiment with HOP-92 NSCLC was more than 100 µM each time. For the same compound, the TGI in the experiment with NCI-H460 lung, in the experiment with OVCAR-4 ovarian, in the experiment with OVCAR-3 ovarian, in the experiment on SR leukemia, with 786-0 renal and in the experiment on SK-MEL-5 melanoma was more than 100 µM throughout. Besides, in the experiment on T-47D breast, the TGI was more than 100 µM.
Regarding `O=C1NC(=O)C(C(c2ccc([N+](=O)[O-])cc2)C2C(=O)NC(=O)NC2=O)C(=O)N1`, the TGI in the experiment with MCF7 breast, in the experiment with PC-3 prostate, in the experiment with SNB-19 CNS, in the experiment on MDA-MB-435, in the experiment on KM12 colon and with SN12C renal was more than 100 µM in each case. Moreover, the concentration for total growth inhibition (TGI) in the experiment with HT29 colon, in the experiment with NCI-H226 lung, in the experiment with UACC-62 melanoma, in the experiment with HL-60(TB) leukemia, in the experiment on HOP-92 NSCLC and in the experiment on NCI-H460 lung was more than 100 µM in each case. The total growth inhibition concentration (TGI) with OVCAR-4 ovarian, with OVCAR-3 ovarian, in the experiment with 786-0 renal, in the experiment on SK-MEL-5 melanoma and in the experiment on T-47D breast was more than 100 µM throughout.
On to `CCOC(=O)/C(=C\c1cn(C(C)=O)c2ccccc12)P(C)(=O)OCC` (stereo not given), for which the TGI was more than 100 µM in the experiment with MCF7 breast; more than 100 µM with PC-3 prostate; 36.5 µM in the experiment with SNB-75 CNS; 45.1 µM in the experiment on SF-539 CNS; more than 100 µM in the experiment with SNB-19 CNS; more than 100 µM in the experiment on MDA-MB-435. In addition, the TGI is more than 100 µM with KM12 colon; more than 100 µM with SN12C renal; more than 100 µM in the experiment with HT29 colon; more than 100 µM in the experiment on UACC-62 melanoma; more than 100 µM in the experiment with HL-60(TB) leukemia; 66.8 µM in the experiment with HOP-92 NSCLC. Also, the TGI in the experiment on OVCAR-3 ovarian, in the experiment on SR leukemia, with 786-0 renal, with SK-MEL-5 melanoma and in the experiment on T-47D breast was more than 100 µM in each case.
Turning to `COC(=O)CCC(=O)c1ccc2c(c1)CC1(C2)Cc2ccc(C(=O)CCC(=O)OC)cc2C1`, the TGI in the experiment on MCF7 breast was more than 100 µM; with PC-3 prostate, more than 100 µM; in the experiment with SNB-75 CNS it was 0.172 µM; in the experiment with SF-539 CNS it was more than 100 µM; in the experiment on MDA-MB-435 it was more than 100 µM; in the experiment with KM12 colon it was more than 100 µM. In addition, the TGI in the experiment with SN12C renal, in the experiment on HT29 colon, in the experiment on UACC-62 melanoma, in the experiment on HL-60(TB) leukemia, in the experiment with HOP-92 NSCLC and in the experiment on OVCAR-4 ovarian was more than 100 µM throughout. Moreover, the TGI is more than 100 µM with OVCAR-3 ovarian; 88.5 µM with SR leukemia; more than 100 µM in the experiment with 786-0 renal; 61.5 µM in the experiment with SK-MEL-5 melanoma; more than 100 µM with T-47D breast.
Turning to `OCC(O)COCn1cc(Cn2ncc3c(NCc4ccccc4)ncnc32)nn1` (stereo not given), the TGI in the experiment with MCF7 breast, with PC-3 prostate, in the experiment on SF-539 CNS, in the experiment with SNB-19 CNS, with MDA-MB-435 and in the experiment with KM12 colon was more than 100 µM each time. Besides, the TGI with SN12C renal, with HT29 colon, in the experiment on NCI-H226 lung, in the experiment with UACC-62 melanoma, with HL-60(TB) leukemia and in the experiment on HOP-92 NSCLC was more than 100 µM in each case. Further, the TGI in the experiment on OVCAR-4 ovarian, with OVCAR-3 ovarian, with SR leukemia, in the experiment with 786-0 renal, in the experiment with SK-MEL-5 melanoma and in the experiment with T-47D breast was more than 100 µM in each case.
On to `CC(C)(C)OC(=O)NCCC1CNc2ccccc21` (stereo not given), for which the TGI in the experiment with MCF7 breast, in the experiment on PC-3 prostate, with SNB-75 CNS, in the experiment on SNB-19 CNS, in the experiment with MDA-MB-435 and in the experiment on KM12 colon was more than 100 µM in each case. Besides, the TGI in the experiment on HT29 colon, in the experiment on UACC-62 melanoma, with HOP-92 NSCLC, in the experiment on NCI-H460 lung, in the experiment on OVCAR-4 ovarian and with OVCAR-3 ovarian was more than 100 µM each time. In addition, the TGI in the experiment with 786-0 renal, in the experiment on SK-MEL-5 melanoma and in the experiment with T-47D breast was more than 100 µM each time.
